Test results: patent US5219884A, “Immunosuppressant” (Taito Co., Ltd., priority 1990, dated 1993)
Where two headings read alike, the source gives them in different places.

Columns and labels:
[1] = system: K562; assay: in vitro; format: cell-based, human
Description: (§1) Cytotoxicity to human tumor cell lines was examined as follows:
(§2) Cells of human cell lines, K562, MOLT4, U937, HL60, KATOIII, KB, PC-6, PC-14 and CCRF-CEM were separately suspended to the concentration of 2×10^5 cells/ml in the RPMI1640 culture medium supplemented with 20% FCS. Fifty μl of this suspension was added to each well of 96-well microculture plates to which 50 μl of the test solution had been added. After culturing at 37° C. in an atmosphere of 5% carbon dioxide for 72 hours, the absorbancy at 550 nm was measured in the same way as the colorimetry using MTT in Experimental Example 1, and the percent suppression was calculated in the same manner as in Experimental Example 14, which was used as the index of cytotoxicity.

[2] = in vitro; format: cell-based, human; conditions: human, read-out: Suppression
Description: as §1, §2

[3] = system: HL60; assay: in vitro; format: cell-based, human
Description: as §1, §2

[4] = system: KB; assay: in vitro; format: cell-based, human
Description: as §1, §2

[5] = system: U937; assay: in vitro; format: cell-based, human
Description: as §1, §2

[6] = system: PC-14; assay: in vitro; format: cell-based, human
Description: as §1, §2

[7] = system: CCRF-CEM; assay: in vitro; format: cell-based, human
Description: as §1, §2

[8] = cytotoxicity to tumor cell line MOLT4; format: cell-based, human; conditions: human, molt4 cells, read-out: Suppression
Description: as §1, §2

[9] = system: MOLT4; assay: cytotoxicity to tumor cell line MOLT4; format: cell-based, human
Description: as §1, §2

[10] = system: mouse allogenic mixed lymphocyte reaction (BALB/c responder, C57BL/6 stimulator spleen cells); assay: mouse allogenic mixed lymphocyte reaction (MLR), blastogenesis by 3H-thymidine uptake; format: cell-based
Description: The immunosuppressive activity of the compounds (I) and their lactones was assayed by using mouse allogenic mixed lymphocyte reaction (hereinafter sometimes abbreviated as MLR). Mouse allogenic MLR was carried out by mixed culture of the BALB/c mouse (H-2^d) spleen cells as the responder cells and the mitomycin C-treated C57BL/6 (H-2^b) spleen cells as the stimulator cells in equal amounts.
The responder cells were prepared as follows: The spleen was resected from 5- to 6-week-old male BALB/c mice, and single cell suspension of spleen cells was prepared by using the RPMI1640 culture medium (containing 60 μg/ml of kanamycin sulfate, 2 mM of L-glutamine, 10 mM of N-2-hydroxyethylpiperazine-N'-2-ethanesulfonate (HEPES) and 0.1% sodium hydrogencarbonate) to which heat-inactivated fetal calf serum (hereinaftersometimes abbreviated as FCS) had been added to 5%. After hemolytic treatment, the cell suspension was adjusted to a concentration of 10^7 cells/ml by using the RPMI1640 culture medium supplemented with 10^-4 M 2-mercaptoethanol and 20% FCS, and was used as the responder cell suspension.
The stimulator cells were prepared as follows:
The spleen was resected from 5- to 6-week-old male C57BL/6 mice, and single cell suspension of spleen cells was prepared by using the RPMI1640 culture medium. After hemolytic treatment, the cells were treated with 40 μg/ml of mitomycin C at 37° C. for 60 minutes. After washing three times, the concentration of the cell suspension was adjusted to 10^7 cells/ ml by using the RPMI1640 culture medium supplemented with 10^-4 M 2-mercaptoethanol and 20% FCS, and was used as the stimulator cell suspension.
Fifty μl of the responder cell suspension, 50μl of the stimulator cell suspension prepared by the above method, and 100 μl of the test substance were placed in 96-well microculture plates, and were cultured at 37° C. in an atmosphere of 5% carbon dioxide for 4 days.
The blastogenesis of lymphocytes was assayed by a method of ^3 H-thymidine uptake as an index. That is, after termination of the culture, 0.5 μCi/well of ^3 H-thymidine was added and cultured for 4 hours. Cells were harvested by a cell-harvester, and the radioactivity incorporated into the cells was determined by a liquid scintillation counter to obtain the index of blastogenesis of lymphocytes in the mouse allogenic MLR. The suppression of the mouse allogenic MLR was evaluated by calculating the percent suppression by the following formula. [formula]
The test substance was dissolved in methanol or suspended in a mixture of methanol and acetic acid, and then diluted with the RPMI1640 culture medium.

[11] = cytotoxicity to mouse L929 cells; format: cell-based; conditions: mouse, l929 cells, read-out: Suppression
Description: (§3) Cytotoxicity to mouse L929 cells was assayed as follows:
(§4) L929 cells were suspended to the concentration of 1.5×10^5 cells/ml in the F12 culture medium supplemented with 10% FCS. One hundred μl of the suspension was added to each well of 96-well microculture plates, and cultured at 37° C. in an atmosphere of 5% carbon dioxide for 24 hours, to which 100 μl of the test solution was added and cultured for further 48 hours. After the culture, 100 μl of the supernatant was removed and the absorbancy at 550 nm was measured in the same way as the colormetry using MTT in Experimental Example 1. The percent suppression was calculated by the following formula used as the index of cytotoxicity. [formula]

[12] = system: mouse L929 cells; assay: cytotoxicity to mouse L929 cells; format: cell-based; conditions: 550 nm
Description: as §3, §4

CCCCCCC(=O)CCCCCCCCCC(O)C(O)C(N)(CO)C(=O)O (stereo not shown) [Example 5]
Absorbancy ([1]; 0.1 μg/ml): 0.823
Absorbancy ([1]; 1.0 μg/ml): 0.810
Absorbancy ([1]; 10.0 μg/ml): 0.780
cytotoxicity at 72 h ([2]; ccrf-cem cells, 0.1 μg/ml): 3.6%
cytotoxicity at 72 h ([2]; ccrf-cem cells, 1.0 μg/ml): 7.4%
cytotoxicity at 72 h ([2]; ccrf-cem cells, 10.0 μg/ml): 21.7%
cytotoxicity at 72 h ([2]; hl60 cells, 0.1 μg/ml): 20.5%
cytotoxicity at 72 h ([2]; hl60 cells, 1.0 μg/ml): 11.9%
cytotoxicity at 72 h ([2]; hl60 cells, 10.0 μg/ml): 20.9%
cytotoxicity at 72 h ([2]; k562 cells, 0.1 μg/ml): 1.6%
cytotoxicity at 72 h ([2]; k562 cells, 1.0 μg/ml): 3.1%
cytotoxicity at 72 h ([2]; k562 cells, 10.0 μg/ml): 6.7%
cytotoxicity at 72 h ([2]; kb cells, 0.1 μg/ml): 0%
cytotoxicity at 72 h ([2]; kb cells, 1.0 μg/ml): 0%
cytotoxicity at 72 h ([2]; kb cells, 10.0 μg/ml): 2.6%
cytotoxicity at 72 h ([2]; pc-14 cells, 0.1 μg/ml): 11.4%
cytotoxicity at 72 h ([2]; pc-14 cells, 1.0 μg/ml): 16.5%
cytotoxicity at 72 h ([2]; pc-14 cells, 10.0 μg/ml): 25.7%
cytotoxicity at 72 h ([2]; u937 cells, 0.1 μg/ml): 4.5%
cytotoxicity at 72 h ([2]; u937 cells, 1.0 μg/ml): 0%
Absorbancy ([3]; 0.1 μg/ml): 0.593
Absorbancy ([3]; 1.0 μg/ml): 0.657
Absorbancy ([3]; 10.0 μg/ml): 0.590
Absorbancy ([4]; 0.1 μg/ml): 0.761
Absorbancy ([4]; 1.0 μg/ml): 0.734
Absorbancy ([4]; 10.0 μg/ml): 0.711
Absorbancy ([5]; 0.1 μg/ml): 0.462
Absorbancy ([5]; 1.0 μg/ml): 0.485
Absorbancy ([6]; 0.1 μg/ml): 0.420
Absorbancy ([6]; 1.0 μg/ml): 0.396
Absorbancy ([6]; 10.0 μg/ml): 0.352
Absorbancy ([7]; 0.1 μg/ml): 0.485
Absorbancy ([7]; 1.0 μg/ml): 0.466
Absorbancy ([7]; 10.0 μg/ml): 0.394
cytotoxicity at 72 h ([8]; 0.1 μg/ml): 4.7%
cytotoxicity at 72 h ([8]; 1.0 μg/ml): 5.2%
cytotoxicity at 72 h ([8]; 10.0 μg/ml): 18.1%
Absorbancy ([9]; 0.1 μg/ml): 0.591
Absorbancy ([9]; 1.0 μg/ml): 0.588
Absorbancy ([9]; 10.0 μg/ml): 0.508
3H-thymidine uptake ([10]; 0.001 μg/ml): 22321 cpm
3H-thymidine uptake ([10]; 0.01 μg/ml): 8182 cpm
3H-thymidine uptake ([10]; 0.1 μg/ml): 1952 cpm
inhibition at 0.001 µg/mL ([10]; Mus musculus, Lymphocyte, 0.001 μg/ml, read-out: Suppression): 23.5%
inhibition at 0.01 µg/mL ([10]; Mus musculus, Lymphocyte, 0.01 μg/ml, read-out: Suppression): 90.6%
inhibition at 0.1 µg/mL ([10]; Mus musculus, Lymphocyte, 0.1 μg/ml, read-out: Suppression): 100%
cytotoxicity at 48 h ([11]; 0.1 μg/ml): 0%
cytotoxicity at 48 h ([11]; 1 μg/ml): 0%
cytotoxicity at 48 h ([11]; 10 μg/ml): 0%
Absorbancy ([12]; 0.1 μg/ml): 0.775
Absorbancy ([12]; 1 μg/ml): 0.805
Absorbancy ([12]; 10 μg/ml): 0.749
